For 37 compounds, Ki results are on record in patent publication US7329652B2, “Diaminotriazole compounds useful as protein kinase inhibitors” (Vertex Pharamaceuticals Incorporated, priority 2004, dated 2008).

The target of one experiment is T1, JAK3 (Homo sapiens, UniProt P52333).
T1 sequence (P52333 1-1124): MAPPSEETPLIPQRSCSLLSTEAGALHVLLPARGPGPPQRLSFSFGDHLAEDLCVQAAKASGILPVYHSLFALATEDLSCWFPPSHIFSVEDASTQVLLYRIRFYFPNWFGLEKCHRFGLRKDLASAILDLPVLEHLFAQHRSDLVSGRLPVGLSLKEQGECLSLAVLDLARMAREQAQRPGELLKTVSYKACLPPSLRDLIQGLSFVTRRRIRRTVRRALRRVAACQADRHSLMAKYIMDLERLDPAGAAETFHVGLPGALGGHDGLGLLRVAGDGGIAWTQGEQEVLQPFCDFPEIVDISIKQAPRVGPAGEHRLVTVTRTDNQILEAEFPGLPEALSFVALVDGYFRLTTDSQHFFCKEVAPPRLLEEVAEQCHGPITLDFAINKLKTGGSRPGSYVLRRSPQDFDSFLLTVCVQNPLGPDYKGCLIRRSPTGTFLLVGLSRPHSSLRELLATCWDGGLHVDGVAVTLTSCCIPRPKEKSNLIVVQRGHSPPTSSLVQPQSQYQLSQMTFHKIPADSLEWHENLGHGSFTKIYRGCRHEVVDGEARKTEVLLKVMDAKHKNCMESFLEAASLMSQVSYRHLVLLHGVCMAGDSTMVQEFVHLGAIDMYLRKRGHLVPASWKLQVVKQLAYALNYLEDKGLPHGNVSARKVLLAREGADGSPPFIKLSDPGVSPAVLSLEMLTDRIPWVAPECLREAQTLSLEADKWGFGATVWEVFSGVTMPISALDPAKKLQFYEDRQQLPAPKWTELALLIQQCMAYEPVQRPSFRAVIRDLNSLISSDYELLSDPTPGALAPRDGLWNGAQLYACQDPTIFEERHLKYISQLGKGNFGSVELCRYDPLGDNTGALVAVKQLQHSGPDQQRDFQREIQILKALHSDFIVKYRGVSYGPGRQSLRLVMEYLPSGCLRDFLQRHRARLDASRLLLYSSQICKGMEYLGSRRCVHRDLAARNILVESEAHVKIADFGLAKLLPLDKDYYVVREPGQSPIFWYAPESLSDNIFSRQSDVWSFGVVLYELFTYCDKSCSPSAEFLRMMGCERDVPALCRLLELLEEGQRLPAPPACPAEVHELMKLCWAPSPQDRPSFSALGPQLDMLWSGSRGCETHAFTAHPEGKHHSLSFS
Nature of the experiment: JAK3 inhibition assay (radiometric 33P filter assay). The class given is biochemical. The settings on record: 1 μM poly(Glu)4Tyr, 5 μM ATP, 1 nM JAK3, 25° C.; read-out: JAK3 inhibition data (Ki). The method, then: (§1) Compounds were screened for their ability to inhibit JAK using the assay shown below. Reactions were carried out in a kinase buffer containing 100 mM HEPES (pH 7.4), 1 mM DTT, 10 mM MgCl2, 25 mM NaCl, and 0.01% BSA.
(§2) Substrate concentrations in the assay were 5 μM ATP (200 uCi/μmole ATP) and 1 μM poly(Glu)4Tyr. Reactions were carried out at 25° C. and 1 nM JAK3.
(§3) To each well of a 96 well polycarbonate plate was added 1.5 μl of a candidate JAK3 inhibitor along with 50 μl of kinase buffer containing 2 μM poly(Glu)4Tyr and 10 μM ATP. This was then mixed and 50 μl of kinase buffer containing 2 nM JAK3 enzyme was added to start the reaction. After 20 minutes at room temperature (25° C.), the reaction was stopped with 50 μl of 20% trichloroacetic acid (TCA) that also contained 0.4 mM ATP. The entire contents of each well were then transferred to a 96 well glass fiber filter plate using a TomTek Cell Harvester. After washing, 60 μl of scintillation fluid was added and ^33P incorporation detected on a Perkin Elmer TopCount.

For the next experiment, the target named is JAK-2 enzyme (Homo sapiens, UniProt O60674). Nature of the experiment: JAK2 inhibition assay (radiometric 33P filter assay). It is filed as biochemical. The settings on record: 15 μM poly(Glu)4Tyr, 12 μM ATP; read-out: JAK2 inhibition data (Ki). The method, then: as §1, §2, §3
The assays were as described above in Example 25 except that JAK-2 enzyme was used, the final poly(Glu)4Tyr concentration was 15 μM, and final ATP concentration was 12 μM.

Sequence of JAK-2 enzyme (O60674 whole entry, species assumed): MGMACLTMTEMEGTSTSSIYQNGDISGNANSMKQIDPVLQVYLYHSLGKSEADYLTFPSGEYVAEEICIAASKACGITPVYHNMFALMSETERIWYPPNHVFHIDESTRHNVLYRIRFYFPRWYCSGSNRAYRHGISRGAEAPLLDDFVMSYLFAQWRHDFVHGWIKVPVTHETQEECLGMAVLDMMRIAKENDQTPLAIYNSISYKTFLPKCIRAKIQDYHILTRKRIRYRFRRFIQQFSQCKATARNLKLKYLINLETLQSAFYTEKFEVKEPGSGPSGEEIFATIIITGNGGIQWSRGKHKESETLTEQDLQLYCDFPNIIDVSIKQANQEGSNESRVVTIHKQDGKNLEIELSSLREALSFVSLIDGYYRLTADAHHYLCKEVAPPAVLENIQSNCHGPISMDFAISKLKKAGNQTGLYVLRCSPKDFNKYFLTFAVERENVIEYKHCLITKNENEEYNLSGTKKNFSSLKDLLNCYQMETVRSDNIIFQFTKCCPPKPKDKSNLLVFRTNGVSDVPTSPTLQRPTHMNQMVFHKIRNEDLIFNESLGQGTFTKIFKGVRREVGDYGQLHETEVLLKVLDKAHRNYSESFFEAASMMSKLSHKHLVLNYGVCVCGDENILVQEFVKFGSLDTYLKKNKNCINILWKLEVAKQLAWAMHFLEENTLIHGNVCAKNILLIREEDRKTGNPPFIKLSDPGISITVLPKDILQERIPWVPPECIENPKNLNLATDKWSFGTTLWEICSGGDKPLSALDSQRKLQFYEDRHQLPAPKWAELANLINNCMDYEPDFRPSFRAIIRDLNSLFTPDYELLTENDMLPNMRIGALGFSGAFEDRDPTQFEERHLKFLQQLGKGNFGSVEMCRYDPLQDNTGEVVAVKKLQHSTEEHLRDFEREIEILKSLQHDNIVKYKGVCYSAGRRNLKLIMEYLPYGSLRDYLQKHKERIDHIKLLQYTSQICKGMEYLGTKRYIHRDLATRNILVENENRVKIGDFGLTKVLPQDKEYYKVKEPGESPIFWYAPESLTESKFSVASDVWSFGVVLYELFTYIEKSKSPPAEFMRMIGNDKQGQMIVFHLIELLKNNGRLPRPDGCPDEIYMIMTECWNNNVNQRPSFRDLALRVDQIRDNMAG

Take `CCOC(=O)N1CCN(c2ccc(Nc3nc(N)n(-c4cc(N5CCCN(S(C)(=O)=O)CC5)ncn4)n3)cc2)CC1` [Compound 144]: the inhibition constant Ki at JAK3 and on JAK-2 enzyme was 50 to 500 nM in each case.

With `CC(=O)N1[C@H](C)CN(c2cc(-n3nc(Nc4ccc(N5CCN(C(=O)OC(C)(C)C)CC5)cc4)nc3N)ncn2)C[C@@H]1C` [Compound 52], the Ki at JAK3 and at JAK-2 enzyme was below 50 nM in each case.

Consider `CCOC(=O)N1CCN(c2ccc(Nc3nc(N)n(-c4cc(N5CCCN(S(=O)(=O)CC)CC5)ncn4)n3)cc2)CC1` [Compound 145], for which the inhibition constant (Ki) on JAK3 and at JAK-2 enzyme was 50 to 500 nM each time.

Consider `CC(=O)N1[C@H](C)CN(c2cc(-n3nc(Nc4ccc(NC(=O)CCC(C)C)cc4)nc3N)ccn2)C[C@@H]1C` [Compound 110], for which the inhibition constant (Ki) on JAK3 and on JAK-2 enzyme was below 50 nM throughout.

Turning to `CCCOC(=O)N1CCN(c2ccc(Nc3nc(N)n(-c4ccnc(N5CCCN(S(=O)(=O)CCC)CC5)c4)n3)cc2)CC1` [Compound 164], the Ki on JAK3 and at JAK-2 enzyme was 50 to 500 nM each time.

As for `COC(=O)Nc1ccc(Nc2nc(N)n(-c3ccnc(N4CCCN(C(C)=O)CC4)c3)n2)cc1` [Compound 170], the Ki on JAK3 and on JAK-2 enzyme was 50 to 500 nM each time.

Consider `CCCOC(=O)Nc1ccc(Nc2nc(N)n(-c3cc(N4CCCN(C(C)=O)CC4)ncn3)n2)cc1` [Compound 92], for which the Ki at JAK3 and at JAK-2 enzyme was below 50 nM in each case.

As to `COC(=O)N1CCCN(c2cc(-n3nc(Nc4ccc(N5CCN(C(=O)OC(C)C)CC5)cc4)nc3N)ccn2)CC1` [Compound 156], the Ki on JAK3 and at JAK-2 enzyme was 50 to 500 nM throughout.

As to `CC(=O)N1CCCN(c2cc(-n3nc(Nc4ccc(N5CCOCC5)cc4)nc3N)ccn2)CC1` [Compound 1], the figures for the Ki on JAK3 and on JAK-2 enzyme were below 50 nM and 50 to 500 nM, respectively.

`CC(=O)N1[C@H](C)CN(c2cc(-n3nc(Nc4ccc(NC(=O)Oc5ccc(C)cc5)cc4)nc3N)ncn2)C[C@@H]1C` [Compound 81]: the Ki on JAK3 and on JAK-2 enzyme was below 50 nM each time.

For `Nc1nc(Nc2ccc(N3CCOCC3)cc2)nn1-c1cc(N2CCCN(C(=O)CC(F)(F)F)CC2)ncn1` [Compound 9], the Ki at JAK3 and at JAK-2 enzyme was below 50 nM in each case.

Regarding `CCCC1CCC(C(=O)Nc2ccc(Nc3nc(N)n(-c4cc(N5CCCN(C(C)=O)CC5)ncn4)n3)cc2)CC1` (centres unmarked) [Compound 25], the Ki on JAK3 and on JAK-2 enzyme was 50 to 500 nM in each case.

Turning to `CC(=O)N1CCCN(c2cc(-n3nc(Nc4ccc(NC(=O)c5ccco5)cc4)nc3N)ncn2)CC1` [Compound 30], the inhibition constant (Ki) on JAK3 and at JAK-2 enzyme was below 50 nM throughout.

Take `CC(C)(C)OC(=O)Nc1ccc(Nc2nc(N)n(-c3cc(N4CCCN(C(=O)CC#N)CC4)ncn3)n2)cc1` [Compound 136]: the inhibition constant (Ki) on JAK3 and at JAK-2 enzyme was below 50 nM in each case.

On to `CCOC(=O)N1CCN(c2ccc(Nc3nc(N)n(-c4ccnc(N5CCCN(C(=O)OCC)CC5)c4)n3)cc2)CC1` [Compound 149], for which the inhibition constant (Ki) on JAK3 and on JAK-2 enzyme was 50 to 500 nM each time.

For the compound `CCCOC(=O)N1CCN(c2ccc(Nc3nc(N)n(-c4ccnc(N5CCCN(C(=O)OC(C)C)CC5)c4)n3)cc2)CC1` [Compound 161], the Ki at JAK3 and on JAK-2 enzyme was 50 to 500 nM in each case.

Regarding `CCCOC(=O)N1CCN(c2ccc(Nc3nc(N)n(-c4ccnc(N5CCCN(S(=O)(=O)CC)CC5)c4)n3)cc2)CC1` [Compound 163], the inhibitory constant (Ki) at JAK3 and on JAK-2 enzyme was 50 to 500 nM throughout.

Take `CC(=O)N1[C@H](C)CN(c2cc(-n3nc(Nc4ccc(NC(=O)OC(C)(C)C)cc4)nc3N)ccn2)C[C@@H]1C` [Compound 109]: the Ki on JAK3 and on JAK-2 enzyme was below 50 nM each time.

Take `CCOC(=O)N1CCN(c2ccc(Nc3nc(N)n(-c4ccnc(N5CCCN(C(=O)OC)CC5)c4)n3)cc2)CC1` [Compound 148]: the Ki at JAK3 and on JAK-2 enzyme was 50 to 500 nM throughout.

For `CC(=O)N1CCCN(c2cc(-n3nc(Nc4ccc(N(C)C(=O)OC(C)(C)C)cc4)nc3N)ncn2)CC1` [Compound 115], the inhibition constant Ki at JAK3 and at JAK-2 enzyme was below 50 nM each time.

On to `CCCOC(=O)N(C)c1ccc(Nc2nc(N)n(-c3cc(N4C[C@@H](C)N(C(C)=O)[C@@H](C)C4)ncn3)n2)cc1` [Compound 118], for which the Ki on JAK3 and on JAK-2 enzyme was below 50 nM throughout.

With `Nc1nc(Nc2ccc(N3CCOCC3)cc2)nn1-c1ccnc(N2CCCCCC2)c1` [Compound 19], the Ki at JAK3 and at JAK-2 enzyme was below 50 nM throughout.

Turning to `CC(=O)N1[C@H](C)CN(c2cc(-n3nc(Nc4ccc(N5CCN(C(=O)Nc6c(F)cccc6F)CC5)cc4)nc3N)ncn2)C[C@@H]1C` [Compound 66], the inhibition constant Ki at JAK3 and at JAK-2 enzyme was below 50 nM throughout.

For the compound `CC(=O)N1CCCN(c2cc(-n3nc(Nc4ccc(N5CCN(C(=O)OC6CCOC6)CC5)cc4)nc3N)ncn2)CC1` (centres unmarked) [Compound 43], the Ki at JAK3 and at JAK-2 enzyme was below 50 nM throughout.

Take `CC(=O)N1[C@H](C)CN(c2cc(-n3nc(Nc4ccc(NC(=O)OCC(C)(C)C)cc4)nc3N)ncn2)C[C@@H]1C` [Compound 80]: the Ki on JAK3 and at JAK-2 enzyme was below 50 nM throughout.

Turning to `CCCCS(=O)(=O)N1CCCN(c2cc(-n3nc(Nc4ccc(N5CCN(C(=O)OCC)CC5)cc4)nc3N)ccn2)CC1` [Compound 147], the Ki on JAK3 and on JAK-2 enzyme was 50 to 500 nM in each case.

On to `CC(=O)N1CCCN(c2cc(-n3nc(Nc4ccc(NC(=O)OC(C)C)cc4)nc3N)ncn2)CC1` [Compound 93], for which the Ki at JAK3 and on JAK-2 enzyme was below 50 nM in each case.

Take `COCC(=O)N1CCCN(c2cc(-n3nc(Nc4ccc(N5CCOCC5)cc4)nc3N)ncn2)CC1` [Compound 5]: the Ki at JAK3 and at JAK-2 enzyme was below 50 nM each time.

For `COC(=O)N(C)c1ccc(Nc2nc(N)n(-c3cc(N4CCCN(C(C)=O)CC4)ncn3)n2)cc1` [Compound 126], the Ki on JAK3 and at JAK-2 enzyme was below 50 nM each time.

Regarding `CC(=O)N1CCCN(c2cc(-n3nc(Nc4ccc(N5CCN(C(=O)OC(C)C)CC5)cc4)nc3N)ncn2)CC1` [Compound 48], the inhibition constant (Ki) at JAK3 and at JAK-2 enzyme was below 50 nM each time.

For `CC(=O)N1CCCN(c2cc(-n3nc(Nc4ccc(N(C)C)cc4)nc3N)ncn2)CC1` [Compound 10], the Ki on JAK3 and on JAK-2 enzyme was below 50 nM in each case.

Regarding `CC(=O)N1CCCN(c2cc(-n3nc(Nc4ccc(NC(=O)C5CCOCC5)cc4)nc3N)ncn2)CC1` [Compound 26], the inhibition constant Ki at JAK3 and at JAK-2 enzyme was below 50 nM each time.

Consider `CC(=O)N1CCCN(c2cc(-n3nc(Nc4ccc(N5CCN(C(=O)CC(C)C)CC5)cc4)nc3N)ncn2)CC1` [Compound 38], for which the Ki on JAK3 and on JAK-2 enzyme was below 50 nM in each case.

For the compound `CCOC(=O)N1CCN(c2ccc(Nc3nc(N)n(-c4cc(N5CCCN(C(=O)CC#N)CC5)ncn4)n3)cc2)CC1` [Compound 124], the inhibition constant Ki on JAK3 and on JAK-2 enzyme was below 50 nM each time.

Regarding `CCCNC(=O)Nc1ccc(Nc2nc(N)n(-c3cc(N4CCCN(C(C)=O)CC4)ncn3)n2)cc1` [Compound 85], the inhibitory constant (Ki) on JAK3 and on JAK-2 enzyme was below 50 nM throughout.

As to `CCOC(=O)Nc1ccc(Nc2nc(N)n(-c3ccnc(N4CCCN(C(C)=O)CC4)c3)n2)cc1` [Compound 171], the Ki on JAK3 is below 50 nM; at JAK-2 enzyme, 50 to 500 nM.

`CCS(=O)(=O)N1CCN(c2ccc(Nc3nc(N)n(-c4ccnc(N5CCCN(C(=O)OC(C)C)CC5)c4)n3)cc2)CC1` [Compound 155]: the inhibition constant (Ki) at JAK3 and at JAK-2 enzyme was 50 to 500 nM throughout.
